According to patent US20240287076A1, “COMPOUNDS FOR TARGETING DEGRADATION OF BRUTON'S TYROSINE KINASE” (BIOGEN MA INC., priority 2021, published 2024):

Molecular target: T1, BTK (Homo sapiens, UniProt Q06187)
T1 construct: The GM01501.3 cell line endogenously expresses BTK with a HiBiT fusion tag via CRISPR knock-in at its C-terminal region; endogenous in cells; host or cells: GM01501.3 (GM01501 cells engineered by CRISPR knock-in of HiBiT at the BTK locus)
Assay: BTK degradation assay using the HiBiT Method (Nano-Glo HiBiT Lytic Assay, GM01501.3 cells)
Type: cell-based
Conditions: HiBiT Degradation on GM01501.3 BTK @ 6 hours
Summary of the method: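 Degradation read-out: HiBiT luminescence after lytic reagent addition, giving DC50. Compounds dosed from 10 μM in 11 half-log steps (duplicate) onto GM01501.3 cells, whose endogenous BTK carries a C-terminal HiBiT knock-in tag; 6 h exposure, 37 °C, 5% CO2.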

T1 sequence (Q06187 whole entry, the tested form may be a part): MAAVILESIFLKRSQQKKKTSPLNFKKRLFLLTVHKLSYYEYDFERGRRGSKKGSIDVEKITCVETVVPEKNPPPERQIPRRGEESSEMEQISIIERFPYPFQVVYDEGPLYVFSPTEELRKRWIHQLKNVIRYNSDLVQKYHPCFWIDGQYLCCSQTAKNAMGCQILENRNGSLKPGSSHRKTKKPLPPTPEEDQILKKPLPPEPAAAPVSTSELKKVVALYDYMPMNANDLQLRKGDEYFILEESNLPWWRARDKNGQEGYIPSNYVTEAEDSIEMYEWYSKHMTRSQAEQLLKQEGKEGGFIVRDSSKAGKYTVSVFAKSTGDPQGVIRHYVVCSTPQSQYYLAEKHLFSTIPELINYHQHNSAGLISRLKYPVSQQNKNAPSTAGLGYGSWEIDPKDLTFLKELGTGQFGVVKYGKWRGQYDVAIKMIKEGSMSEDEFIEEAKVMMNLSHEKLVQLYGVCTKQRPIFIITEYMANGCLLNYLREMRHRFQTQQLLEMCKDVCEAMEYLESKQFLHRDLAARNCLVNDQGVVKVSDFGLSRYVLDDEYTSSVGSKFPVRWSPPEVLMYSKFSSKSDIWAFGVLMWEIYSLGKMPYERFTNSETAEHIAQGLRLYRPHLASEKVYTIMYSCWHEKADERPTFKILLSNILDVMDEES

DC50 [nM] | SMILES
< 100 | Cc1cc(-c2ncnn3cc(-c4ccc(CN5CCC(c6ccc7c(N8CCC(=O)NC8=O)nn(C)c7c6)CC5)cc4F)cc23)ccc1CNC(=O)c1noc(C(C)(C)C)n1 [Example 246, 5-(tert-butyl)-N-(4-(6-(4-((4-(3-(2,4-dioxotetrahydropyrimidin-1(2H)-yl)-1-methyl-1H-indazol-6-yl)piperidin-1-yl)methyl)-2-fluorophenyl)pyrrolo[2,1-f][1,2,4]triazin-4-yl)-2-methylbenzyl)-1,2,4-oxadiazole-3-carboxamide]
< 100 | Cc1cc(-c2ncnn3cc(-c4cccc(CN5CCC(c6ccc(OC7CCC(=O)NC7=O)cc6)CC5)n4)cc23)ccc1CNC(=O)c1noc(C(C)(C)C)n1 (centres unmarked) [Example 247, 5-(tert-butyl)-N-(4-(6-(6-((4-(4-((2,6-dioxopiperidin-3-yl)oxy)phenyl)piperidin-1-yl)methyl)pyridin-2-yl)pyrrolo[2,1-f][1,2,4]triazin-4-yl)-2-methylbenzyl)-1,2,4-oxadiazole-3-carboxamide]
< 100 | Cc1cc(-c2ncnn3cc(-c4cccc(CN5CCC(c6ccc7c(N8CCC(=O)NC8=O)nn(C)c7c6)CC5)n4)cc23)ccc1CNC(=O)c1noc(C(C)(C)C)n1 [Example 248, 5-(tert-butyl)-N-(4-(6-(6-((4-(3-(2,4-dioxotetrahydropyrimidin-1(2H)-yl)-1-methyl-1H-indazol-6-yl)piperidin-1-yl)methyl)pyridin-2-yl)pyrrolo[2,1-f][1,2,4]triazin-4-yl)-2-methylbenzyl)-1,2,4-oxadiazole-3-carboxamide]
< 100 | Cc1cc(-c2ncnn3cc(CCN4CCC(c5ccc(NC6CCC(=O)NC6=O)nc5)CC4)cc23)ccc1CNC(=O)c1noc(C(C)(C)C)n1 (centres unmarked) [Example 250, 5-(tert-butyl)-N-(4-(6-(2-(4-(6-((2,6-dioxopiperidin-3-yl)amino)pyridin-3-yl)piperidin-1-yl)ethyl)pyrrolo[2,1-f] [1,2,4]triazin-4-yl)-2-methylbenzyl)-1,2,4-oxadiazole-3-carboxamide]
< 100 | Cc1cc(-c2ncnn3cc(CCN4CCC(c5ncc(NC6CCC(=O)NC6=O)cc5F)CC4)cc23)ccc1CNC(=O)c1noc(C(C)(C)C)n1 (centres unmarked) [Example 251, 5-(tert-butyl)-N-(4-(6-(2-(4-(5-((2,6-dioxopiperidin-3-yl)amino)-3-fluoropyridin-2-yl)piperidin-1-yl)ethyl)pyrrolo[2,1-f][1,2,4]triazin-4-yl)-2-methylbenzyl)-1,2,4-oxadiazole-3-carboxamide]
< 100 | Cc1cc(-c2ncnn3cc(CCN4CCC(c5ccc(NC6CCC(=O)NC6=O)cn5)CC4)cc23)ccc1CNC(=O)c1noc(C(C)(C)C)n1 (centres unmarked) [Example 252, 5-(tert-butyl)-N-(4-(6-(2-(4-(5-((2,6-dioxopiperidin-3-yl)amino)pyridin-2-yl)piperidin-1-yl)ethyl)pyrrolo[2,1-f][1,2,4]triazin-4-yl)-2-methylbenzyl)-1,2,4-oxadiazole-3-carboxamide]
< 100 | Cc1cc(-c2ncnn3cc(CCN4CCC(c5ccc6c(N7CCC(=O)NC7=O)nn(C)c6c5)C(F)(F)C4)cc23)ccc1CNC(=O)c1noc(C(C)(C)C)n1 (centres unmarked) [Example 253, 5-(tert-butyl)-N-(4-(6-(2-(4-(3-(2,4-dioxotetrahydropyrimidin-1(2H)-yl)-1-methyl-1H-indazol-6-yl)-3,3-difluoropiperidin-1-yl)ethyl)pyrrolo[2,1-f][1,2,4]triazin-4-yl)-2-methylbenzyl)-1,2,4-oxadiazole-3-carboxamide]
< 100 | Cc1cc(-c2ncnn3cc(CCN4CCC(c5ccc(OC6CCC(=O)NC6=O)cc5F)CC4)cc23)ccc1CNC(=O)c1noc(C(C)(C)C)n1 (centres unmarked) [Example 254, 5-(tert-butyl)-N-(4-(6-(2-(4-(4-((2,6-dioxopiperidin-3-yl)oxy)-2-fluorophenyl)piperidin-1-yl)ethyl)pyrrolo[2,1-f][1,2,4]triazin-4-yl)-2-methylbenzyl)-1,2,4-oxadiazole-3-carboxamide]
